# Measured values: publication PMC9374667 (Communications Biology, 2022)
# Values joined by “and” are separate entries in the source; they are usually repeats but may differ in a detail not shown here. Equal entries are not always repeated.
# Experiments:
# [1] = system: TNF-α, IL-6, MCP-1, F4/80 (Adgre1), CD11c (Itgax); assay: qRT-PCR of inflammatory related genes and macrophage marker genes in eWAT; format: in vivo, mice; design: key to Tnf-α / IL-6 / Ccl2 / Adgre1 / Itgax: relative expression normalized to gapdh, 2^-ΔΔCt method
# Description: Total RNA was isolated from 3T3-L1 cells and adipose tissue homogenates using Trizol reagent (Invitrogen, Carlsbad, CA, USA). RNA concentration and purity were examined at 260/280 nm using a nanodrop spectrophotometer (NanoDrop One, Thermo Fisher Scientific, USA). The total RNA was reverse transcribed to cDNA using the EasyScript All-in-One First-Strand cDNA Synthesis SuperMix for qPCR kit (TransGen Biotech, Beijing, China). The quantitative reverse transcription polymerase chain reaction was performed using TransStart Top Green qPCR SuperMix (TransGen Biotech, Beijing, China) and an Applied Biosystems 7500 RealTime PCR System (Life Technologies, USA). Relative expression levels were normalized to gapdh expression and quantified using the 2^-ΔΔCt method. The primers were synthesized by Shanghai Sangon Biotech, and the detailed primer sequences were shown in Supplementary Table 5 in the supplementary materials.
# [2] = target: T1, TBK1 (Mus musculus, UniProt Q9WUN2); assay: 3T3-L1 adipocytes transfected with TBK1 plasmid (western blotting, immunofluorescence); format: cell-based, Murine; design: host or cells: differentiated 3T3-L1 adipocytes (Lipofectamine 2000); TBK1 (western blotting, Figure 8a) / p-TBK1 (western blotting, Figure 8b) / p-AMPKα (western blotting, Figure 8c) / UCP1 (western blotting, Figure 8d): scale not given here; details: for Mean Intensity: 2μg TBK1 + 10μM BJ, individual replicates
# T1 sequence (Q9WUN2 1-729): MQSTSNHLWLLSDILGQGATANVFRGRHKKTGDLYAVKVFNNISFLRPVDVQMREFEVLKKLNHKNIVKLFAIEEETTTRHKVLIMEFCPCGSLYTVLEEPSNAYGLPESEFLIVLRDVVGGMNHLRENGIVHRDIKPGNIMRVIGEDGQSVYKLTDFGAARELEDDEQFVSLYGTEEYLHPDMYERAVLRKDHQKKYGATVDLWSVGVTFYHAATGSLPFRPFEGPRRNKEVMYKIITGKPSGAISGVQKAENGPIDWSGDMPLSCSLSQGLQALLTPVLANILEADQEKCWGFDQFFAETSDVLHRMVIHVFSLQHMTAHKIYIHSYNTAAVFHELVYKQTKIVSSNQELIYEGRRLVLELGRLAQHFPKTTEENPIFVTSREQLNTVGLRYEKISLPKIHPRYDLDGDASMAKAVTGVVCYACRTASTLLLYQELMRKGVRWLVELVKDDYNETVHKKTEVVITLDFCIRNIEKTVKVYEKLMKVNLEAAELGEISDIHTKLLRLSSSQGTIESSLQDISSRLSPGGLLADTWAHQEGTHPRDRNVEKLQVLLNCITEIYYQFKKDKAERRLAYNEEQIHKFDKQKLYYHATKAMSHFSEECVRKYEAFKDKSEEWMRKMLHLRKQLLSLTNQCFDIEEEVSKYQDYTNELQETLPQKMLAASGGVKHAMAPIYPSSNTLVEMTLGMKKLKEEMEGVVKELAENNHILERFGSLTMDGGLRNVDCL
# Experimental: […] The 3T3-L1 adipocytes were washed with PBS for 3 times, fixed with 4% paraformaldehyde solution for 30 min, and then washed again for 3 times. […] The cells were then incubated overnight at 4 °C with the appropriate primary antibodies (1:100 dilution). The next day, the 3T3-L1 adipocytes were washed and incubated at room temperature with goat anti-rabbit secondary antibody or goat anti-mouse secondary antibody (1:1000 dilution) for 2 h and washed with PBS for 3 times. The nuclei were stained with DAPI. […] Fluorescence images were taken using a laser confocal microscope (SP8, Leica, Germany). At least four images per section were acquired for quantification, and the mean intensity were evaluated using ImageJ. The adipose tissue or 3T3-L1 adipocytes were homogenized by ultrasound in an ice-cold RIPA lysis buffer containing 1% PMSF and centrifuged at 12,000 × g at 4°C for 15 min to collect the supernatant. The BCA protein assay kit (Beyotime, Shanghai, China) was used to detect the total protein concentration. Proteins (20-30 μg) of the sample were separated by 10% SDS-PAGE gel and transferred onto polyvinylidene difluoride (PVDF) membranes. Then the PVDF membranes were blocked in 5% skim milk powder in TBS containing 1% Tween-20 (TBST) for 2 h at room temperature and washed with TBST for 3 times. […] After washing, the membranes were incubated with horseradish peroxidase-conjugated secondary antibodies (in 5% skim milk powder) for 1 h at room temperature. Finally, the membranes were treated with enhanced chemiluminescence agents (Tanon, Shanghai, China) and the signals were monitored using the Tanon 5200 multi chemiluminescent imaging system (Tanon, Shanghai, China).
# [3] = Figure 5g, BBR 150mg/kg, replicates, first Veh value = 1
# [4] = 3T3-L1 adipocytes transfected with TBK1 plasmid, 10 μM BJ, vs TBK1 transfection
compound,measurement,setting,value
"COc1ccc2cc3[n+](cc2c1OC)CCc1cc2c(cc1-3)OCO2 [BBR, Berberine chloride dihydrate]",Adgre1,[1]; [3],0.3 and 0.2426 and 0.368
same,Ccl2,[1]; [3],0.8769 and 0.7967 and 0.7737
same,IL-6,[1]; [3],0.5766 and 0.5775 and 0.5396
same,Itgax,[1]; [3],0.806 and 0.855 and 0.8182
same,Tnf-α,[1]; [3],0.6975 and 0.7551 and 0.7391
same,"mRNA levels of TNF-α, IL-6, MCP-1, F4/80 (Adgre1) and CD11c (Itgax) in eWAT","[1]; db/db mice, 5 weeks of treatment, vs vehicle",reduced the mRNA levels
"CC(C)Cc1ccc(C(C)C(=O)[O-])cc1.COc1ccc2cc3[n+](cc2c1OC)CCc1cc2c(cc1-3)OCO2.O.O.O.O [BJ, berberine-ibuprofen]","TBK1 (western blotting, Figure 8a)",[2]; 2μg TBK1+10μM BJ,0.5408 and 0.448 and 0.5761
same,"UCP1 (western blotting, Figure 8d)",[2]; 2μg TBK1+10μM BJ,0.7389 and 0.5561 and 0.5877
same,"p-AMPKα (western blotting, Figure 8c)",[2]; 2μg TBK1+10μM BJ,0.3928 and 0.3723 and 0.348
same,"p-TBK1 (western blotting, Figure 8b)",[2]; 2μg TBK1+10μM BJ,0.5922 and 0.4 and 0.4766
same,"TBK1 (western blotting, Figure 8a)",[2]; 10μM BJ,0.38 and 0.387 and 0.3646
same,"UCP1 (western blotting, Figure 8d)",[2]; 10μM BJ,0.5655 and 0.6018 and 0.6331
same,"p-AMPKα (western blotting, Figure 8c)",[2]; 10μM BJ,0.4524 and 0.4108 and 0.3523
same,"p-TBK1 (western blotting, Figure 8b)",[2]; 10μM BJ,0.5028 and 0.4045 and 0.6995
same,Phosphorylation of TBK1 at Ser172,"[2]; 3T3-L1 adipocytes transfected with TBK1 plasmid, 10 μM BJ",increased the phosphorylation of TBK1 at Ser172
same,Phosphorylation of AMPKα Thr172 and UCP1 protein levels,[2]; [4],increased the phosphorylation of AMPKα Thr172 and increased the UCP1 protein levels
same,TBK1 protein levels,[2]; [4],markedly reduced the TBK1 protein levels
same,Mean Intensity,[2]; Figure S11c,20.873 A.U. and 18.04 A.U. and 17.203 A.U. and 19.263 A.U. and 18.463 A.U. and 18.776 A.U. and 23.056 A.U. and 11.015 A.U. and 23.907 A.U. and 21.41 A.U. and 21.836 A.U. and 20.009 A.U.
same,Mean Intensity,[2]; Figure S11g,11.659 A.U. and 7.08 A.U. and 13.692 A.U. and 12.377 A.U. and 10.165 A.U. and 17.942 A.U. and 13.51 A.U. and 14.616 A.U. and 14.87 A.U. and 10.529 A.U. and 9.155 A.U. and 10.462 A.U.
same,Mean Intensity,[2]; Figure S11d,20.305 A.U. and 17.417 A.U. and 18.699 A.U. and 21.221 A.U. and 16.857 A.U. and 15.382 A.U. and 18.398 A.U. and 14.495 A.U. and 16.691 A.U. and 21.635 A.U. and 11.895 A.U. and 12.802 A.U.
same,Mean Intensity,[2]; sheet Figure S11h,18.036 A.U. and 17.064 A.U. and 12.941 A.U. and 17.572 A.U. and 15.135 A.U. and 12.981 A.U. and 16.45 A.U. and 12.776 A.U. and 13.679 A.U. and 13.503 A.U. and 12.749 A.U. and 17.882 A.U.
